Test results from article PMC7588595, “Small-molecule active pharmaceutical ingredients of approved cancer therapeutics inhibit human aspartate/asparagine-β-hydroxylase” (Bioorganic & Medicinal Chemistry, 2020).
Structures can show the parent of a compound that is named as a salt. Where two headings read alike, the source gives them in different places.

Target: T1, human AspH (His6-AspH315–758) (Homo sapiens, UniProt Q12797)
T1 construct: N-Terminally His6-tagged human AspH315–758 (His6-AspH315–758) was produced in Escherichia coli BL21 (DE3) cells; made in house; host or cells: Escherichia coli BL21 (DE3), pET-28a(+) vector
T1 sequence (Q12797 315-758): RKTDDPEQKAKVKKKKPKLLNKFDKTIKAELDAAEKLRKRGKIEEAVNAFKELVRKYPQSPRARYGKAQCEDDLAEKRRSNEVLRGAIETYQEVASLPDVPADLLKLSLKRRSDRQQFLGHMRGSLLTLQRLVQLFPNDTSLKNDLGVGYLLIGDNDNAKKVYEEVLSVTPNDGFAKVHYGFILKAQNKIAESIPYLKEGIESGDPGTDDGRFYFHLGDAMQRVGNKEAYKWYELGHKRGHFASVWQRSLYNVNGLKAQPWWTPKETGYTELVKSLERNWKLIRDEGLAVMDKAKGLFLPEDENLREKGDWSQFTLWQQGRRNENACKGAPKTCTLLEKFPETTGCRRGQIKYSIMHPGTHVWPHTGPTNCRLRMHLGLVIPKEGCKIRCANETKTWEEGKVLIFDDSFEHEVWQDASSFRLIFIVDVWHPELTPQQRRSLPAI
Experiment: SPE-MS AspH inhibition assay (hFX-CP101-119 substrate hydroxylation)
Format: biochemical

[1] = AspH-inhibitor screening, 384-well Plate 1
[2] = AspH-inhibitor screening, 384-well Plate 1, substrate conversion
[3] = AspH-inhibitor screening, Plate 1-duplicate
[4] = AspH-inhibitor screening, Plate 1-duplicate, substrate conversion

## CN(Cc1cnc2nc(N)nc(N)c2n1)c1ccc(C(=O)N[C@@H](CCC(=O)O)C(=O)O)cc1 [Abitrexate/Methotrexate]
[1]
  Plate 1 (% inhibition): 8.67%
[2]
  Plate 1 (% conversion): 45.75%
[3]
  Plate 1-duplicate (% inhibition): 10.50%
[4]
  Plate 1-duplicate (% conversion): 46.84%

## N[C@@H](Cc1ccc(N(CCCl)CCCl)cc1)C(=O)O [Melphalan]
[1]
  Plate 1 (% inhibition): 9.41%
[2]
  Plate 1 (% conversion): 45.40%
[3]
  Plate 1-duplicate (% inhibition): 3.88%
[4]
  Plate 1-duplicate (% conversion): 50.12%

## O=C(Nc1cccnc1)N1CCC(Cc2cccc(Oc3ccc(C(F)(F)F)cn3)c2)CC1 [PF-3845]
[1]
  Plate 1 (% inhibition): 5.62%
[2]
  Plate 1 (% conversion): 47.15%
[3]
  Plate 1-duplicate (% inhibition): -12.27%
[4]
  Plate 1-duplicate (% conversion): 58.13%

## CCC(C)(C)C(=O)O[C@H]1C[C@@H](C)C=C2C=C[C@H](C)[C@H](CC[C@@H]3C[C@@H](O)CC(=O)O3)[C@H]21 [Simvastatin]
[1]
  Plate 1 (% inhibition): -15.63%
[2]
  Plate 1 (% conversion): 56.97%
[3]
  Plate 1-duplicate (% inhibition): -16.09%
[4]
  Plate 1-duplicate (% conversion): 60.02%

## Cc1cc2c(F)c(Oc3ncnn4cc(OC[C@@H](C)O)c(C)c34)ccc2[nH]1 [Brivanib]
[1]
  Plate 1 (% inhibition): 6.97%
[2]
  Plate 1 (% conversion): 46.53%
[3]
  Plate 1-duplicate (% inhibition): 3.72%
[4]
  Plate 1-duplicate (% conversion): 50.20%

## COC(=O)C[C@](O)(CCCC(C)(C)O)C(=O)O[C@@H]1C(OC)=C[C@]23CCCN2CCc2cc4c(cc2[C@H]13)OCO4 [Omacetaxine mepesuccinate]
[1]
  Plate 1 (% inhibition): -1.21%
[2]
  Plate 1 (% conversion): 50.31%
[3]
  Plate 1-duplicate (% inhibition): 6.33%
[4]
  Plate 1-duplicate (% conversion): 48.90%

## Oc1ncc(N(CCCl)CCCl)c(O)n1 [Uracil mustard]
  Plate 1 (% conversion): 47.47%
  Plate 1 (% inhibition): 4.95%
  Plate 1-duplicate (% conversion): 46.70%
  Plate 1-duplicate (% inhibition): 10.76%

## COCCNCc1ccc(-c2cc3nccc(Oc4ccc(NC(=S)NC(=O)Cc5ccc(F)cc5)cc4F)c3s2)nc1 [MGCD-265]
[1]
  Plate 1 (% inhibition): 74.52%
[2]
  Plate 1 (% conversion): 15.34%
[3]
  Plate 1-duplicate (% inhibition): 67.97%
[4]
  Plate 1-duplicate (% conversion): 18.33%

## CC(C)(C)Cn1c(N)nc2ccc(-c3[nH]c(C(C)(C)C)nc3-c3ccc(F)cc3)nc21 [LY2228820 (CP868569)]
[1]
  Plate 1 (% inhibition): -13.39%
[2]
  Plate 1 (% conversion): 55.93%
[3]
  Plate 1-duplicate (% inhibition): -13.16%
[4]
  Plate 1-duplicate (% conversion): 58.57%

## Cc1ccc(-n2nc(C(C)(C)C)cc2NC(=O)Nc2ccc(OCCN3CCOCC3)c3ccccc23)cc1 [BIRB 796 (Doramapimod)]
[1]
  Plate 1 (% inhibition): 7.83%
[2]
  Plate 1 (% conversion): 46.14%
[3]
  Plate 1-duplicate (% inhibition): 2.76%
[4]
  Plate 1-duplicate (% conversion): 50.67%

## CN(N=O)C(=O)N[C@@H](C=O)[C@@H](O)[C@H](O)[C@H](O)CO [Streptozocin]
[1]
  Plate 1 (% inhibition): 6.30%
[2]
  Plate 1 (% conversion): 46.84%
[3]
  Plate 1-duplicate (% inhibition): 4.95%
[4]
  Plate 1-duplicate (% conversion): 49.58%

## O=C1CCC(N2C(=O)c3ccccc3C2=O)C(=O)N1 (stereo not shown) [Thalidomide]
[1]
  Plate 1 (% inhibition): 3.16%
[2]
  Plate 1 (% conversion): 48.29%
[3]
  Plate 1-duplicate (% inhibition): 1.43%
[4]
  Plate 1-duplicate (% conversion): 51.33%

## N.N.[Cl][Pt][Cl] [Cisplatin aq]
[1]
  Plate 1 (% inhibition): 26.89%
[2]
  Plate 1 (% conversion): 37.33%
[3]
  Plate 1-duplicate (% inhibition): 26.45%
[4]
  Plate 1-duplicate (% conversion): 38.92%

## Nc1nc(F)nc2c1ncn2[C@@H]1O[C@H](COP(=O)(O)O)[C@@H](O)[C@@H]1O [Fludarabine phosphate]
[1]
  Plate 1 (% inhibition): 5.12%
[2]
  Plate 1 (% conversion): 47.39%
[3]
  Plate 1-duplicate (% inhibition): 1.33%
[4]
  Plate 1-duplicate (% conversion): 51.38%

## O=P(O)(O)C(O)(Cn1ccnc1)P(=O)(O)O [Zoledronic acid]
[1]
  Plate 1 (% inhibition): 19.60%
[2]
  Plate 1 (% conversion): 40.70%
[3]
  Plate 1-duplicate (% inhibition): 13.13%
[4]
  Plate 1-duplicate (% conversion): 45.53%

## COc1cccc2cc(-c3nc([C@H]4CC[C@H](C(=O)O)CC4)n4ncnc(N)c34)[nH]c12 [OSI-027]
[1]
  Plate 1 (% inhibition): -4.91%
[2]
  Plate 1 (% conversion): 52.02%
[3]
  Plate 1-duplicate (% inhibition): -2.62%
[4]
  Plate 1-duplicate (% conversion): 53.34%

## CC(=O)N(O)CCCCCNC(=O)CCC(=O)N(O)CCCCCNC(=O)CCC(=O)N(O)CCCCCN [Deferoxamine mesylate]
[1]
  Plate 1 (% inhibition): 14.63%
[2]
  Plate 1 (% conversion): 43.00%
[3]
  Plate 1-duplicate (% inhibition): 7.26%
[4]
  Plate 1-duplicate (% conversion): 48.44%

## CN1CCc2c(c3ccccc3n2Cc2ccc(C(=O)NO)cc2)C1.Cl [Tubastatin A HCl]
[1]
  Plate 1 (% inhibition): -13.29%
[2]
  Plate 1 (% conversion): 55.89%
[3]
  Plate 1-duplicate (% inhibition): -15.22%
[4]
  Plate 1-duplicate (% conversion): 59.59%

## C[C@@H]1C=C2C(=O)O[C@@H]3CC[C@H](C1)[C@]23O [Galiellalactone]
[1]
  Plate 1 (% inhibition): 15.61%
[2]
  Plate 1 (% conversion): 42.54%
[3]
  Plate 1-duplicate (% inhibition): 8.63%
[4]
  Plate 1-duplicate (% conversion): 47.76%

## CC[C@H](Nc1ncnc2[nH]cnc12)c1nc2cccc(F)c2c(=O)n1-c1ccccc1 [CAL-101]
[1]
  Plate 1 (% inhibition): 5.28%
[2]
  Plate 1 (% conversion): 47.31%
[3]
  Plate 1-duplicate (% inhibition): 3.08%
[4]
  Plate 1-duplicate (% conversion): 50.52%

## CCN(CC)CCNC(=O)c1c(C)[nH]c(/C=C2\C(=O)Nc3ccc(F)cc32)c1C [Sunitinib]
[1]
  Plate 1 (% inhibition): -40.27%
[2]
  Plate 1 (% conversion): 68.35%
[3]
  Plate 1-duplicate (% inhibition): -34.40%
[4]
  Plate 1-duplicate (% conversion): 69.10%

## Cl.c1ccc(C2CN3CCSC3=N2)cc1 (stereo not shown) [Tetramisole HCl]
  Plate 1 (% conversion): 46.13%
  Plate 1 (% inhibition): 7.83%
  Plate 1-duplicate (% conversion): 48.14%
  Plate 1-duplicate (% inhibition): 7.87%

## COc1cccc2c1C(=O)c1c(O)c3c(c(O)c1C2=O)C[C@@](O)(C(C)=O)C[C@@H]3O[C@H]1C[C@H](N)[C@H](O)[C@H](C)O1 [Daunorubicin hydrochloride]
[1]
  Plate 1 (% inhibition): -28.45%
[2]
  Plate 1 (% conversion): 62.89%
[3]
  Plate 1-duplicate (% inhibition): -40.01%
[4]
  Plate 1-duplicate (% conversion): 71.89%

## Nc1cccc2c1CN(C1CCC(=O)NC1=O)C2=O (stereo not shown) [Lenalidomide]
[2]
  Plate 1 (% conversion): 47.43%
[3]
  Plate 1-duplicate (% inhibition): 4.54%
[4]
  Plate 1-duplicate (% conversion): 49.79%

## C[C@@H](C(=O)O)c1ccc(-c2ccccc2)c(F)c1 [(R)-Flurbiprofen (Tarenflurbil)]
[1]
  Plate 1 (% inhibition): 10.59%
[2]
  Plate 1 (% conversion): 44.86%
[3]
  Plate 1-duplicate (% inhibition): 16.18%
[4]
  Plate 1-duplicate (% conversion): 44.01%

## CC[C@H](Nc1ncnc2[nH]cnc12)c1nc2cccc(F)c2c(=O)n1-c1ccccc1 [Idelalisib]
[1]
  Plate 1 (% inhibition): 9.55%
[2]
  Plate 1 (% conversion): 45.34%
[3]
  Plate 1-duplicate (% inhibition): 7.71%
[4]
  Plate 1-duplicate (% conversion): 48.22%

## C=CC(=O)N1CCC[C@@H](n2nc(-c3ccc(Oc4ccccc4)cc3)c3c(N)ncnc32)C1 [PCI-32765_Ibrutinib]
[1]
  Plate 1 (% inhibition): 0.65%
[2]
  Plate 1 (% conversion): 49.45%
[3]
  Plate 1-duplicate (% inhibition): -9.59%
[4]
  Plate 1-duplicate (% conversion): 56.80%

## O=NN(CCCl)C(=O)NCCCl [Carmustine]
[1]
  Plate 1 (% inhibition): 1.59%
[2]
  Plate 1 (% conversion): 49.02%
[3]
  Plate 1-duplicate (% inhibition): 7.94%
[4]
  Plate 1-duplicate (% conversion): 48.11%

## CCc1cnn2c(NCc3ccc[n+]([O-])c3)cc(N3CCCC[C@H]3CCO)nc12 [Dinaciclib (SCH727965)]
[1]
  Plate 1 (% inhibition): 1.39%
[2]
  Plate 1 (% conversion): 49.11%
[3]
  Plate 1-duplicate (% inhibition): 2.62%
[4]
  Plate 1-duplicate (% conversion): 50.74%

## CC1=C(/C=C/C(C)=C/C=C/C(C)=C/C(=O)O)C(C)(C)CCC1 [Tretinoin]
[1]
  Plate 1 (% inhibition): 71.19%
[2]
  Plate 1 (% conversion): 16.88%
[3]
  Plate 1-duplicate (% inhibition): 64.04%
[4]
  Plate 1-duplicate (% conversion): 20.28%

## COc1cc2nccc(Oc3ccc(NC(=O)C4(C(=O)Nc5ccc(F)cc5)CC4)cc3)c2cc1OC [XL184_Cabozantinib]
[1]
  Plate 1 (% inhibition): 11.20%
[2]
  Plate 1 (% conversion): 44.58%
[3]
  Plate 1-duplicate (% inhibition): -8.84%
[4]
  Plate 1-duplicate (% conversion): 56.43%

## CNC(=O)c1cc(Oc2ccc(NC(=O)Nc3ccc(Cl)c(C(F)(F)F)c3)cc2)ccn1 [Sorafenib]
[1]
  Plate 1 (% inhibition): 50.93%
[2]
  Plate 1 (% conversion): 26.23%
[3]
  Plate 1-duplicate (% inhibition): 41.45%
[4]
  Plate 1-duplicate (% conversion): 31.48%

## Cn1cc(-c2[nH]c3cc(NC(=O)[C@H](N)C4CCCCC4)cc4c3c2C=NNC4=O)cn1 [PF 477736]
[1]
  Plate 1 (% inhibition): -54.30%
[2]
  Plate 1 (% conversion): 74.83%
[3]
  Plate 1-duplicate (% inhibition): -54.03%
[4]
  Plate 1-duplicate (% conversion): 78.84%

## Nc1nc2nc[nH]c2c(=S)[nH]1 [Thioguanine]
[1]
  Plate 1 (% inhibition): 7.28%
[2]
  Plate 1 (% conversion): 46.39%
[3]
  Plate 1-duplicate (% inhibition): 8.14%
[4]
  Plate 1-duplicate (% conversion): 48.00%

## O=C1NC(=O)[C@@H](c2cn3c4c(cccc24)CCC3)[C@@H]1c1c[nH]c2ccccc12 [ARQ 197_Tivantinib]
[1]
  Plate 1 (% inhibition): -6.95%
[2]
  Plate 1 (% conversion): 52.96%
[3]
  Plate 1-duplicate (% inhibition): -13.62%
[4]
  Plate 1-duplicate (% conversion): 58.79%
